Source: PubChem BioAssay AID1259408 (Genetic Toxicology Data Bank (GENE-TOX), 2018)
The source made the active and inactive calls. How the calls were made is not given here.

Tested on: GENE-TOX genotoxicity assays, various organisms and cells
Assay: GENE-TOX mutagenicity studies
Details: for call: Assay Type: In vivo carcinogenicity studies
[1] = Species/Cell Type: Drosophila melanogaster, Assay Type: Sex-linked recessive lethal gene mutation, Assay Code: SRL+, Evaluation Type: Evaluation A (Pre-1980)
[2] = Species/Cell Type: Escherichia coli polA (W3119 vs P3478), Assay Type: Rec-assay, DNA effects (bacterial DNA repair), Assay Code: RE1+, Evaluation Type: Evaluation A (Pre-1980)
[3] = Species/Cell Type: Nonhuman, Assay Code: CCG+, Evaluation Type: Evaluation A (Pre-1980)
[4] = Species/Cell Type: Nonhuman, Assay Type: Sister-chromatid exchange (SCE) in vitro, Assay Code: SC2+D, Dose Response: With dose response, Evaluation Type: Evaluation B (Post-1980)
[5] = Species/Cell Type: Nonhuman, Assay Type: Sister-chromatid exchange (SCE) in vivo, Assay Code: SC3+, Evaluation Type: Evaluation B (Post-1980)
[6] = Species/Cell Type: Plant, Assay Type: Micronucleus test, chromosome aberrations, Assay Code: MNP+, Evaluation Type: Evaluation A (Pre-1980)
[7] = Species/Cell Type: Drosophila melanogaster, Assay Type: Sex-linked recessive lethal gene mutation, Assay Code: SRLT, Evaluation Type: Evaluation A (Pre-1980)
[8] = Species/Cell Type: Saccharomyces cerevisiae, Assay Type: Reverse gene mutation, Assay Code: YERT, Evaluation Type: Evaluation A (Pre-1980)
[9] = Species/Cell Type: Human lymphocytes, Assay Type: Sister-chromatid exchange (SCE) in vitro, Assay Code: SCL+D, Dose Response: With dose response, Evaluation Type: Evaluation B (Post-1980)
[10] = Species/Cell Type: Human, Assay Type: Sister-chromatid exchange (SCE) in vitro, Assay Code: SC1+D, Dose Response: With dose response, Evaluation Type: Evaluation B (Post-1980)
[11] = Species/Cell Type: Nonhuman, Assay Code: CCG+L, Evaluation Type: Evaluation A (Pre-1980)
[12] = Species/Cell Type: Salmonella typhimurium (one or more of the five standard strains: TA98, TA100, TA1535, TA1537, and TA1538), Assay Type: Histidine reverse gene mutation, Ames assay, Assay Code: SAL+, Evaluation Type: Evaluation A (Pre-1980)
[13] = Species/Cell Type: Salmonella typhimurium (one or more of the five standard strains: TA98, TA100, TA1535, TA1537, and TA1538), Assay Type: Histidine reverse gene mutation, Ames assay, Assay Code: SAL+*, Activation: With metabolic activation, Evaluation Type: Evaluation A (Pre-1980)
[14] = Species/Cell Type: Salmonella typhimurium (one or more of the five standard strains: TA98, TA100, TA1535, TA1537, and TA1538), Assay Type: Histidine reverse gene mutation, Ames assay, Assay Code: SALT, Evaluation Type: Evaluation A (Pre-1980)

BrCCBr
mutagenic call (Species/Cell Type: Aspergillus nidulans, Assay Type: Forward gene mutation, Assay Code: ASF+, Evaluation Type: Evaluation A (Pre-1980)): active; positive | mutagenic call (Species/Cell Type: Chinese hamster ovary (CHO) cells, Assay Type: Forward gene mutation at the HPRT locus, Assay Code: CHO+, Evaluation Type: Evaluation B (Post-1980)): active; positive | mutagenic call [1]: active; positive | mutagenic call [2]: active; positive | mutagenic call (Species/Cell Type: Fischer rat embryo (RLV/1706) cells, Assay Type: Cell transformation, viral enhanced, Assay Code: CTR+, Evaluation Type: Evaluation A (Pre-1980)): active; positive | mutagenic call (Species/Cell Type: Human lymphocytes, Assay Type: Sister-chromatid exchange (SCE) in vitro, Assay Code: SCL+, Evaluation Type: Evaluation B (Post-1980)): active; positive | mutagenic call (Species/Cell Type: Human, Assay Type: Sister-chromatid exchange (SCE) in vitro, Assay Code: SC1+, Evaluation Type: Evaluation B (Post-1980)): active; positive | mutagenic call (Species/Cell Type: Human, Sex: Male, Assay Type: Sperm morphology, Assay Code: SPH+, Evaluation Type: Evaluation A (Pre-1980)): active; positive | mutagenic call (Species/Cell Type: Mammalian polychromatic erythrocytes, Assay Type: Micronucleus test, chromosome aberrations, Assay Code: MNTT, Evaluation Type: Evaluation B (Post-1980)): no conclusion | mutagenic call (Species/Cell Type: Mouse germ cells, Sex: Male, Assay Type: Unscheduled DNA synthesis (UDS) in vivo, DNA effects, Assay Code: UDT-, Evaluation Type: Evaluation A (Pre-1980)): inactive; negative | mutagenic call (Species/Cell Type: Mouse lymphoma (L5178Y) cells, Assay Type: Forward gene mutation at the thymidine kinase (TK) locus, chromosome aberrations, Assay Code: L51+, Evaluation Type: Evaluation A (Pre-1980)): active; positive | mutagenic call (Species/Cell Type: Neurospora crassa, Assay Type: Forward gene mutation, Assay Code: NEF+, Evaluation Type: Evaluation A (Pre-1980)): active; positive | call [3]: active; positive | mutagenic call [4]: active; positive | mutagenic call [5]: active; positive | mutagenic call [6]: active; positive | mutagenic call (Species/Cell Type: Saccharomyces cerevisiae, Assay Type: Mitotic recombination or gene conversion, Assay Code: YEC+, Evaluation Type: Evaluation A (Pre-1980)): active; positive | mutagenic call (Species/Cell Type: Salmonella typhimurium, Assay Type: Forward and reverse gene mutation, body fluid assay, Assay Code: BFUT, Evaluation Type: Evaluation A (Pre-1980)): no conclusion | mutagenic call (Species/Cell Type: Salmonella typhimurium, Assay Type: Forward and reverse gene mutation, host-mediated assay, Assay Code: HMA+, Evaluation Type: Evaluation A (Pre-1980)): active; positive | mutagenic call (Species/Cell Type: Syrian hamster embryo (SA7/SHE) cells, Assay Type: Cell transformation, viral enhanced, Assay Code: CT7+, Evaluation Type: Evaluation A (Pre-1980)): active; positive | mutagenic call (Species/Cell Type: Tradescantia species, Assay Type: Chromosome aberrations, Assay Code: TRC+D, Dose Response: With dose response, Evaluation Type: Evaluation A (Pre-1980)): active; positive | mutagenic call (Species/Cell Type: Tradescantia species, Assay Type: Gene mutation, Assay Code: TRM+D, Dose Response: With dose response, Evaluation Type: Evaluation A (Pre-1980)): active; positive

c1ccc2c(c1)ccc1nc3c(ccc4ccccc43)nc12
mutagenic call [7]: no conclusion

Nc1ccc(Oc2ccc(N)c(Cl)c2)cc1Cl
call [3]: active; positive

COC(=O)COc1ccc(Cl)cc1CCl (tested in a mixture with another compound)
mutagenic call [8]: no conclusion

COc1ccc2c(c1)CC[C@@H]1[C@@H]2CC[C@]2(C)[C@@H](O)[C@H](O)C[C@@H]12
mutagenic call (Species/Cell Type: Rat, Sex: Male, Assay Type: Sperm morphology, Assay Code: SPA+, Evaluation Type: Evaluation A (Pre-1980)): active; positive

c1ccc2nc3ccccc3cc2c1
mutagenic call (Species/Cell Type: Saccharomyces cerevisiae, Assay Type: Forward gene mutation, Assay Code: YEFT, Evaluation Type: Evaluation A (Pre-1980)): no conclusion

c1ccc(C2CO2)cc1 (configuration not stated)
mutagenic call (Species/Cell Type: Chinese hamster lung (V79) cells, Assay Type: Forward gene mutation at the HPRT or ouabain locus, Assay Code: V79+, Evaluation Type: Evaluation A (Pre-1980)): active; positive | mutagenic call [1]: active; positive | mutagenic call (Species/Cell Type: Escherichia coli WP2 UVRA, Assay Type: Tryptophan reverse gene mutation, Assay Code: WPU+D, Dose Response: With dose response, Evaluation Type: Evaluation A (Pre-1980)): active; positive | mutagenic call (Species/Cell Type: Human diploid fibroblasts, Assay Type: Unscheduled DNA synthesis (UDS) in vitro, DNA effects, Assay Code: UDH+, Evaluation Type: Evaluation A (Pre-1980)): active; positive | mutagenic call (Species/Cell Type: Human lymphocytes, Assay Type: Micronucleus test in vitro, chromosome aberrations, Assay Code: MN7+, Evaluation Type: Evaluation A (Pre-1980)): active; positive | mutagenic call [9]: active; positive | mutagenic call [10]: active; positive | mutagenic call (Species/Cell Type: Mammalian polychromatic erythrocytes, Assay Type: Micronucleus test, chromosome aberrations, Assay Code: MNTT, Evaluation Type: Evaluation A (Pre-1980)): no conclusion | call [11]: active; positive | mutagenic call [5]: active; positive | mutagenic call [6]: active; positive | mutagenic call (Species/Cell Type: Rodents, Sex: Male, Assay Type: Dominant lethal test, Assay Code: DLT-, Evaluation Type: Evaluation A (Pre-1980)): inactive; negative | mutagenic call (Species/Cell Type: Saccharomyces cerevisiae, Assay Type: Forward and reverse gene mutation, mitotic recombination and gene conversion, host-mediated assay, Assay Code: HME+, Evaluation Type: Evaluation A (Pre-1980)): active; positive | mutagenic call (Species/Cell Type: Saccharomyces cerevisiae, Assay Type: Mitotic recombination or gene conversion, Assay Code: YEC+*, Activation: With metabolic activation, Evaluation Type: Evaluation A (Pre-1980)): active; positive | mutagenic call [12]: active; positive | mutagenic call (Species/Cell Type: Schizosaccharomyces pombe, Assay Type: Forward gene mutation, Assay Code: YEY+/-*, Activation: With metabolic activation, Evaluation Type: Evaluation A (Pre-1980)): inactive; positive without activation, negative with activation

Cc1c(C)c2c(c(C)c1O)CC[C@@](C)(CCC[C@H](C)CCC[C@H](C)CCCC(C)C)O2
mutagenic call (Species/Cell Type: Human lymphocytes, Assay Type: Sister-chromatid exchange (SCE) in vitro, Assay Code: SCLT, Evaluation Type: Evaluation B (Post-1980)): no conclusion | mutagenic call (Species/Cell Type: Human, Assay Type: Sister-chromatid exchange (SCE) in vitro, Assay Code: SC1T, Evaluation Type: Evaluation B (Post-1980)): no conclusion

Cc1cc2ccccc2c2ccc3c(c12)CCC3=O
mutagenic call [13]: active; positive

CCOP(=S)(OCC)SCSC(C)(C)C
mutagenic call (Species/Cell Type: Hordeum vulgare (barley), Assay Type: Chromosome aberrations, Assay Code: HOC+D, Dose Response: With dose response, Evaluation Type: Evaluation A (Pre-1980)): active; positive

O=S(=O)(Cl)c1cccc2cccnc12
mutagenic call [14]: no conclusion

COc1ccc2c3c([nH]c2c1)C(C)=NCC3
mutagenic call [14]: no conclusion

CCN(CC)Cc1cc(Br)ccc1OCC(=O)N/N=C/c1ccc(O)c(OC)c1
mutagenic call [8]: no conclusion

NCCCCNCCCN
mutagenic call [14]: no conclusion

NC(=O)c1ccccc1C(N)=O
call (Species/Cell Type: Nonhuman, Assay Code: CCG-, Evaluation Type: Evaluation A (Pre-1980)): inactive; negative

ClC1=CC(c2cc(Cl)ccc2Cl)=C(Cl)[C@H]2O[C@@H]12
mutagenic call [14]: no conclusion

CCOC(=O)NO
mutagenic call [7]: no conclusion | mutagenic call [2]: active; positive | mutagenic call (Species/Cell Type: Human lymphocytes or leukocytes, Assay Type: Chromosome aberrations in vitro, Assay Code: CY7+, Evaluation Type: Evaluation A (Pre-1980)): active; positive | mutagenic call [9]: active; positive | mutagenic call [10]: active; positive | mutagenic call (Species/Cell Type: Mammalian polychromatic erythrocytes, Assay Type: Micronucleus test, chromosome aberrations, Assay Code: MNT+, Evaluation Type: Evaluation A (Pre-1980)): active; positive | mutagenic call (Species/Cell Type: Mouse embryo (AKR/ME) cells, Assay Type: Cell transformation, Assay Code: CTK+, Evaluation Type: Evaluation A (Pre-1980)): active; positive | call [11]: active; positive | mutagenic call [4]: active; positive | mutagenic call (Species/Cell Type: Nonhuman, Assay Type: Sister-chromatid exchange (SCE) in vivo, Assay Code: SC3+D, Dose Response: With dose response, Evaluation Type: Evaluation B (Post-1980)): active; positive

Cc1c(C(=O)O)c(O)cc2c1C(=O)c1c(O)c([C@@H]3O[C@@H](CO)[C@H](O)[C@@H](O)[C@H]3O)c(O)c(O)c1C2=O
mutagenic call (Species/Cell Type: Bacillus subtilis (H17 vs M45), Assay Type: Rec-assay, spot test, DNA effects (bacterial DNA repair), Assay Code: REWT, Evaluation Type: Evaluation A (Pre-1980)): no conclusion | mutagenic call (Species/Cell Type: Bacillus subtilis (H17 vs M45T), Assay Type: Rec-assay, spot test, DNA effects (bacterial DNA repair), Assay Code: REXT, Evaluation Type: Evaluation A (Pre-1980)): no conclusion

COc1cc2c(c3c(C)cc4ccccc4c13)CCC2=O
mutagenic call [13]: active; positive

O=[N+]([O-])c1cccc2ncccc12
mutagenic call [12]: active; positive
